ChEMBL document CHEMBL4425147, “Preparation, biological evaluation and molecular docking study of imidazolyl dihydropyrimidines as potential Mycobacterium tuberculosis dihydrofolate reductase inhibitors” (Bioorg Med Chem Lett, 2016)
Values after ≈ are worked out from the molar mass of the structure shown.

tested on: Mycobacterium tuberculosis; assay: Antitubercular activity against Mycobacterium tuberculosis H37Rv ATCC 27294 by MABA; type: functional; settings: not given

Structure (SMILES)	MIC90
CCCCc1nc(Cl)c(C2NC(=O)NC(C)=C2C(=O)Nc2ccc(F)cc2)[nH]1 (stereo not given)	0.39 µg/mL (≈ 0.961 µM)
CCCCc1nc(Cl)c(C2NC(=O)NC(C)=C2C(=O)Nc2ccc([N+](=O)[O-])cc2)[nH]1 (stereo not given)	0.78 µg/mL (≈ 1.8 µM)
CCCCc1nc(Cl)c(C2NC(=O)NC(C)=C2C(=O)Nc2ccc(Cl)cc2)[nH]1 (stereo not given)	0.39 µg/mL (≈ 0.923 µM)
CCCCc1nc(Cl)c(C2NC(=O)NC(C)=C2C(=O)Nc2ccccc2Cl)[nH]1 (stereo not given)	1.56 µg/mL (≈ 3.69 µM)
NNC(=O)c1ccncc1 [ISONIAZID]	0.03 to 0.06 µg/mL (≈ 0.219 to 0.438 µM)
CCCCc1nc(Cl)c(C2NC(=O)NC(C)=C2C(=O)Nc2ccccc2F)[nH]1 (stereo not given)	3.12 µg/mL (≈ 7.69 µM)

tested on: Mycobacterium tuberculosis; assay: Antitubercular activity against Mycobacterium tuberculosis H37Rv ATCC 27294 at 6.25 ug/ml by MABA; type: functional; settings: not given

Structure (SMILES)	inhibition at 6.25 µg/mL
CCCCc1nc(Cl)c(C2NC(=O)NC(C)=C2C(=O)Nc2ccc(F)cc2)[nH]1 (stereo not given)	99%
CCCCc1nc(Cl)c(C2NC(=O)NC(C)=C2C(=O)Nc2ccc([N+](=O)[O-])cc2)[nH]1 (stereo not given)	98%
CCCCc1nc(Cl)c(C2NC(=O)NC(C)=C2C(=O)Nc2cccc(OC)c2)[nH]1 (stereo not given)	72%
CCCCc1nc(Cl)c(C2NC(=O)NC(C)=C2C(=O)Nc2ccccc2)[nH]1 (stereo not given)	59%
CCCCc1nc(Cl)c(C2NC(=O)NC(C)=C2C(=O)Nc2cccc(F)c2)[nH]1 (stereo not given)	85%
CCCCc1nc(Cl)c(C2NC(=O)NC(C)=C2C(=O)Nc2cccc([N+](=O)[O-])c2)[nH]1 (stereo not given)	76%
CCCCc1nc(Cl)c(C2NC(=O)NC(C)=C2C(=O)Nc2ccccc2C)[nH]1 (stereo not given)	63%
CCCCc1nc(Cl)c(C2NC(=O)NC(C)=C2C(=O)Nc2ccccc2OC)[nH]1 (stereo not given)	79%
CCCCc1nc(Cl)c(C2NC(=O)NC(C)=C2C(=O)Nc2ccc(OC)cc2)[nH]1 (stereo not given)	89%
CCCCc1nc(Cl)c(C2NC(=O)NC(C)=C2C(=O)Nc2ccccc2[N+](=O)[O-])[nH]1 (stereo not given)	82%
CCCCc1nc(Cl)c(C2NC(=O)NC(C)=C2C(=O)Nc2cccc(Cl)c2)[nH]1 (stereo not given)	89%
CCCCc1nc(Cl)c(C2NC(=O)NC(C)=C2C(=O)Nc2ccc(Cl)cc2)[nH]1 (stereo not given)	97%
CCCCc1nc(Cl)c(C2NC(=O)NC(C)=C2C(=O)Nc2ccc(C)cc2)[nH]1 (stereo not given)	72%
CCCCc1nc(Cl)c(C2NC(=O)NC(C)=C2C(=O)Nc2ccccc2Cl)[nH]1 (stereo not given)	92%
CCCCc1nc(Cl)c(C2NC(=O)NC(C)=C2C(=O)Nc2cccc(C)c2)[nH]1 (stereo not given)	65%
CCCCc1nc(Cl)c(C2NC(=O)NC(C)=C2C(=O)Nc2ccccc2F)[nH]1 (stereo not given)	90%

tested on: Vero; assay: Cytotoxicity against African green monkey Vero cells assessed as reduction in cell viability after 72 hrs by MTT assay; type: cell-based; settings: Chlorocebus sabaeus

Structure (SMILES)	IC50
CCCCc1nc(Cl)c(C2NC(=O)NC(C)=C2C(=O)Nc2ccc(F)cc2)[nH]1 (stereo not given)	> 10 µg/mL
CCCCc1nc(Cl)c(C2NC(=O)NC(C)=C2C(=O)Nc2ccc([N+](=O)[O-])cc2)[nH]1 (stereo not given)	> 10 µg/mL
CCCCc1nc(Cl)c(C2NC(=O)NC(C)=C2C(=O)Nc2ccc(Cl)cc2)[nH]1 (stereo not given)	9.4 µg/mL (≈ 22.3 µM)
CCCCc1nc(Cl)c(C2NC(=O)NC(C)=C2C(=O)Nc2ccccc2Cl)[nH]1 (stereo not given)	7.6 µg/mL (≈ 18 µM)
CCCCc1nc(Cl)c(C2NC(=O)NC(C)=C2C(=O)Nc2ccccc2F)[nH]1 (stereo not given)	> 10 µg/mL

tested on: not listed separately; assay: Selectivity ratio of IC50 for African green monkey Vero cells to MIC for Mycobacterium tuberculosis H37Rv ATCC 27294; type: toxicity; settings: read-out: Selectivity Index

Structure (SMILES)	selectivity ratio
CCCCc1nc(Cl)c(C2NC(=O)NC(C)=C2C(=O)Nc2ccc(F)cc2)[nH]1 (stereo not given)	> 25.6
CCCCc1nc(Cl)c(C2NC(=O)NC(C)=C2C(=O)Nc2ccc([N+](=O)[O-])cc2)[nH]1 (stereo not given)	> 12.8
CCCCc1nc(Cl)c(C2NC(=O)NC(C)=C2C(=O)Nc2ccc(Cl)cc2)[nH]1 (stereo not given)	24.1
CCCCc1nc(Cl)c(C2NC(=O)NC(C)=C2C(=O)Nc2ccccc2Cl)[nH]1 (stereo not given)	4.87
NNC(=O)c1ccncc1 [ISONIAZID]	> 40000
CCCCc1nc(Cl)c(C2NC(=O)NC(C)=C2C(=O)Nc2ccccc2F)[nH]1 (stereo not given)	> 3.12

tested on: Mycobacterium tuberculosis; assay: Bacteriostatic activity against Mycobacterium tuberculosis Erdman infected in mouse bone marrow macrophage monolayers assessed as reduction in colony forming units at 4 fold MIC concentration after 7 days; type: functional; settings: Erdman = ATCC 35801, 168 h

Structure (SMILES)	EC90
CCCCc1nc(Cl)c(C2NC(=O)NC(C)=C2C(=O)Nc2ccc(F)cc2)[nH]1 (stereo not given)	0.039 µg/mL (≈ 0.0961 µM)
CCCCc1nc(Cl)c(C2NC(=O)NC(C)=C2C(=O)Nc2ccc([N+](=O)[O-])cc2)[nH]1 (stereo not given)	0.074 µg/mL (≈ 0.171 µM)
CCCCc1nc(Cl)c(C2NC(=O)NC(C)=C2C(=O)Nc2ccc(Cl)cc2)[nH]1 (stereo not given)	0.102 µg/mL (≈ 0.242 µM)
NNC(=O)c1ccncc1 [ISONIAZID]	0.03 µg/mL (≈ 0.219 µM)

tested on: Mycobacterium tuberculosis; assay: Bactericidal activity against Mycobacterium tuberculosis Erdman infected in mouse bone marrow macrophage monolayers assessed as reduction in colony forming units at 4 fold MIC concentration after 7 days; type: functional; settings: Erdman = ATCC 35801, 168 h

Structure (SMILES)	EC99
CCCCc1nc(Cl)c(C2NC(=O)NC(C)=C2C(=O)Nc2ccc(F)cc2)[nH]1 (stereo not given)	0.54 µg/mL
CCCCc1nc(Cl)c(C2NC(=O)NC(C)=C2C(=O)Nc2ccc([N+](=O)[O-])cc2)[nH]1 (stereo not given)	0.59 µg/mL
CCCCc1nc(Cl)c(C2NC(=O)NC(C)=C2C(=O)Nc2ccc(Cl)cc2)[nH]1 (stereo not given)	0.69 µg/mL
NNC(=O)c1ccncc1 [ISONIAZID]	0.42 µg/mL

tested on: not listed separately; assay: Ratio of EC90 for Mycobacterium tuberculosis Erdman infected in mouse bone marrow macrophage monolayers to MIC for Mycobacterium tuberculosis H37Rv ATCC 27294; type: functional; settings: not given

Structure (SMILES)	Ratio
CCCCc1nc(Cl)c(C2NC(=O)NC(C)=C2C(=O)Nc2ccc(F)cc2)[nH]1 (stereo not given)	0.1
CCCCc1nc(Cl)c(C2NC(=O)NC(C)=C2C(=O)Nc2ccc([N+](=O)[O-])cc2)[nH]1 (stereo not given)	0.09
CCCCc1nc(Cl)c(C2NC(=O)NC(C)=C2C(=O)Nc2ccc(Cl)cc2)[nH]1 (stereo not given)	0.26
NNC(=O)c1ccncc1 [ISONIAZID]	1
